This note sets out measurements from the kinase profiling compilation of Christmann-Franck et al. (2016).

Some targets named below: PIK3C2B (human) (UniProt O00750); AKT3 (human) (UniProt Q9Y243); ALK (human) (UniProt Q9UM73); BMPR1A (human) (UniProt P36894); BMPR2 (human) (UniProt Q13873); BMX (human) (UniProt P51813); CDK11A (human) (UniProt Q9UQ88); CDK14 (human) (UniProt O94921); CSNK1G2 (human) (UniProt P78368); EPHA1 (human) (UniProt P21709); ERBB4 (human) (UniProt Q15303); FER (human) (UniProt P16591); INSRR (human) (UniProt P14616); MAP2K2 (human) (UniProt P36507); MAP3K12 (human) (UniProt Q12852); MAP3K3 (human) (UniProt Q99759); MAPK13 (human) (UniProt O15264); MAPK7 (human) (UniProt Q13164); MERTK (human) (UniProt Q12866); MYO3B (human) (UniProt Q8WXR4); PAK1 (human) (UniProt Q13153); PAK2 (human) (UniProt Q13177); PAK6 (human) (UniProt Q9NQU5); PAK7 (human) (UniProt Q9P286); PIK3CB (human) (UniProt P42338); PIK3CD (human) (UniProt O00329); PKMYT1 (human) (UniProt Q99640); PRKACA (human) (UniProt P17612); RAF1 (human) (UniProt P04049); ROS1 (human) (UniProt P08922); SGK110 (human) (UniProt P0C264); SRC (human) (UniProt P12931); SRMS (human) (UniProt Q9H3Y6); STK36 (human) (UniProt Q9NRP7); STK38L (human) (UniProt Q9Y2H1); ULK3 (human) (UniProt Q6PHR2); ZAP70 (human) (UniProt P43403).

Common to all, as to assay: KINOMEscan competition binding
Common to all, as to details: compound 10.0 µM

For test [1], the system named is ABL1 (human), P00519 [F317L].
Test [2] deals with ABL1 (human), P00519 [Q252H].
Test [3] has as its system EGFR (human), P00533 [A750P; 747-749 del].
Test [4] has as its system EGFR (human), P00533 [L858R].
The subject of test [5] is RET (human), P07949 [V804M].

Chain of RAF1 (human) (P04049 whole entry, looked up): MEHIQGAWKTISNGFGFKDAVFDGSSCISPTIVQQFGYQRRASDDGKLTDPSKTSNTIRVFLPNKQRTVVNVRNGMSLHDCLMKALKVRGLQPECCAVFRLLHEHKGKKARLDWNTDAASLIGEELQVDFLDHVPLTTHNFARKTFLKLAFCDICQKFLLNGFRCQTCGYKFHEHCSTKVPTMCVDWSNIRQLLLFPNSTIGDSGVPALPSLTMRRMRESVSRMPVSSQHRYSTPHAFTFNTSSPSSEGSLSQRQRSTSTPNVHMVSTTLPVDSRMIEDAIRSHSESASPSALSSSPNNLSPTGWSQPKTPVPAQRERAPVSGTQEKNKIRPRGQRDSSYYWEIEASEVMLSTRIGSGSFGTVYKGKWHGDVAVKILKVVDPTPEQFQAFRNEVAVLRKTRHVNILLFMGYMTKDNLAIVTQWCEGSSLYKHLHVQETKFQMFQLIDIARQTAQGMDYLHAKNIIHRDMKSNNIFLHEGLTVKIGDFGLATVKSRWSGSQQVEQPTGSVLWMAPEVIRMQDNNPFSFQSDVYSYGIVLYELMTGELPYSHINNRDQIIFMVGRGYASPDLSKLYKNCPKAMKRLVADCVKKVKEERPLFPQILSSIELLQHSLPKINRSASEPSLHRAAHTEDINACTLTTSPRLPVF
Chain of PAK2 (human) (Q13177 whole entry, looked up): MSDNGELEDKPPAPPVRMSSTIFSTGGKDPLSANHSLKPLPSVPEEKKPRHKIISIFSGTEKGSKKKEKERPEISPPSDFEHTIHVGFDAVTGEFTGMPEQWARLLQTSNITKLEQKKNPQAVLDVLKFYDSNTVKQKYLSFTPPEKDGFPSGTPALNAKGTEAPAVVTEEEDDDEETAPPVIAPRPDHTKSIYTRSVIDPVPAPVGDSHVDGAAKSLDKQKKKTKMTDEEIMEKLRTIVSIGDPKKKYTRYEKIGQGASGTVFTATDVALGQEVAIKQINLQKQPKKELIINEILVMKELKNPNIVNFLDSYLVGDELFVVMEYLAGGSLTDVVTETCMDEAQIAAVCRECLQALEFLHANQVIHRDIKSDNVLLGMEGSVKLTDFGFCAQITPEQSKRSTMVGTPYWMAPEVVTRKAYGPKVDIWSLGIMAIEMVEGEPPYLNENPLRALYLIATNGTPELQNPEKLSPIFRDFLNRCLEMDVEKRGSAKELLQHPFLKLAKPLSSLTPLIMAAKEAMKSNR
Chain of CDK14 (human) (O94921 whole entry, looked up): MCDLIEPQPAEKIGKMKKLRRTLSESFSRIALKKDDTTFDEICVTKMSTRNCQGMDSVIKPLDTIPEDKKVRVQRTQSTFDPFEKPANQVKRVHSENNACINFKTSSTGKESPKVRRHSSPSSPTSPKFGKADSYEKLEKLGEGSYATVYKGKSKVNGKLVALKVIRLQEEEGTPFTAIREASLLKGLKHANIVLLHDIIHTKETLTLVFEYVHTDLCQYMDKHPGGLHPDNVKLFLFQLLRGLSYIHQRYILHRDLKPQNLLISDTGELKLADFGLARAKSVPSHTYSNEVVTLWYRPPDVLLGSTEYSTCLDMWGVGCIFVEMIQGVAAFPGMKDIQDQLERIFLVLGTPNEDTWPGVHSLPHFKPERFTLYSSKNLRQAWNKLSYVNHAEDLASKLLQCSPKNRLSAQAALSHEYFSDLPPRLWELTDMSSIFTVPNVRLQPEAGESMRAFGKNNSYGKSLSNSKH
Chain of BMPR1A (human) (P36894 whole entry, looked up): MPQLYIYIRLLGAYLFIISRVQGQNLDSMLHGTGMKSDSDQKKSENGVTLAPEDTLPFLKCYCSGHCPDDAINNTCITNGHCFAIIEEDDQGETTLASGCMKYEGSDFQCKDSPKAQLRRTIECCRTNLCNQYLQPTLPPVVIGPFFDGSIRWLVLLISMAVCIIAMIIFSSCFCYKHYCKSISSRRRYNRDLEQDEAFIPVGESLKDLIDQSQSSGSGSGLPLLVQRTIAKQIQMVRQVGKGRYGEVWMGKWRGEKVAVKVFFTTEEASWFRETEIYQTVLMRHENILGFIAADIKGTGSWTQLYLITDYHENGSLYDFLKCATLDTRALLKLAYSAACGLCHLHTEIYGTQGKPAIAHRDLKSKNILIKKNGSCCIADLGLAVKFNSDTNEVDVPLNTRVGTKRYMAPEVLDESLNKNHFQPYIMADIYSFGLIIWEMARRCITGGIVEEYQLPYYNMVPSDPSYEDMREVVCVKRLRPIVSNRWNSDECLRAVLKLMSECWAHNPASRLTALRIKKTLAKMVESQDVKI
Chain of CDK11A (human) (Q9UQ88 whole entry, looked up): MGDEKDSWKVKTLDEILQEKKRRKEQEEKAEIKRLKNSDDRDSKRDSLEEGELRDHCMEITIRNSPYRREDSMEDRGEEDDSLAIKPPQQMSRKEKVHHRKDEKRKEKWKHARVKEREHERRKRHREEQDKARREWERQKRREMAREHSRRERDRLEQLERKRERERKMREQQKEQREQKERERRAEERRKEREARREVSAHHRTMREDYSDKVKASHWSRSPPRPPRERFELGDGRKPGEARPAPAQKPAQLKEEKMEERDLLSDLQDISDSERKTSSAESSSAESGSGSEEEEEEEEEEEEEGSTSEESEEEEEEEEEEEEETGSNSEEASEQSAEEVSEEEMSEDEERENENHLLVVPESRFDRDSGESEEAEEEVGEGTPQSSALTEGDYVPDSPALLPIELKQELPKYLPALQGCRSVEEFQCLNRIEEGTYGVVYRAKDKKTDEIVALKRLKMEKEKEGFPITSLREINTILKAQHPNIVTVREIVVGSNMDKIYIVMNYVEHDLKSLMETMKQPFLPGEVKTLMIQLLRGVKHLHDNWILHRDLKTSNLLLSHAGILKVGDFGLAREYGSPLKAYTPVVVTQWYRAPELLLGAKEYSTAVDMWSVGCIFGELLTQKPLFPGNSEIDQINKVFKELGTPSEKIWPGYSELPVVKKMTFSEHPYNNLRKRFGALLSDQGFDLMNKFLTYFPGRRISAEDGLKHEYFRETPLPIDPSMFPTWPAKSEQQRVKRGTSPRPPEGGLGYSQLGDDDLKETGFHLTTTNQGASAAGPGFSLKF
Chain of ALK (human) (Q9UM73 whole entry, looked up): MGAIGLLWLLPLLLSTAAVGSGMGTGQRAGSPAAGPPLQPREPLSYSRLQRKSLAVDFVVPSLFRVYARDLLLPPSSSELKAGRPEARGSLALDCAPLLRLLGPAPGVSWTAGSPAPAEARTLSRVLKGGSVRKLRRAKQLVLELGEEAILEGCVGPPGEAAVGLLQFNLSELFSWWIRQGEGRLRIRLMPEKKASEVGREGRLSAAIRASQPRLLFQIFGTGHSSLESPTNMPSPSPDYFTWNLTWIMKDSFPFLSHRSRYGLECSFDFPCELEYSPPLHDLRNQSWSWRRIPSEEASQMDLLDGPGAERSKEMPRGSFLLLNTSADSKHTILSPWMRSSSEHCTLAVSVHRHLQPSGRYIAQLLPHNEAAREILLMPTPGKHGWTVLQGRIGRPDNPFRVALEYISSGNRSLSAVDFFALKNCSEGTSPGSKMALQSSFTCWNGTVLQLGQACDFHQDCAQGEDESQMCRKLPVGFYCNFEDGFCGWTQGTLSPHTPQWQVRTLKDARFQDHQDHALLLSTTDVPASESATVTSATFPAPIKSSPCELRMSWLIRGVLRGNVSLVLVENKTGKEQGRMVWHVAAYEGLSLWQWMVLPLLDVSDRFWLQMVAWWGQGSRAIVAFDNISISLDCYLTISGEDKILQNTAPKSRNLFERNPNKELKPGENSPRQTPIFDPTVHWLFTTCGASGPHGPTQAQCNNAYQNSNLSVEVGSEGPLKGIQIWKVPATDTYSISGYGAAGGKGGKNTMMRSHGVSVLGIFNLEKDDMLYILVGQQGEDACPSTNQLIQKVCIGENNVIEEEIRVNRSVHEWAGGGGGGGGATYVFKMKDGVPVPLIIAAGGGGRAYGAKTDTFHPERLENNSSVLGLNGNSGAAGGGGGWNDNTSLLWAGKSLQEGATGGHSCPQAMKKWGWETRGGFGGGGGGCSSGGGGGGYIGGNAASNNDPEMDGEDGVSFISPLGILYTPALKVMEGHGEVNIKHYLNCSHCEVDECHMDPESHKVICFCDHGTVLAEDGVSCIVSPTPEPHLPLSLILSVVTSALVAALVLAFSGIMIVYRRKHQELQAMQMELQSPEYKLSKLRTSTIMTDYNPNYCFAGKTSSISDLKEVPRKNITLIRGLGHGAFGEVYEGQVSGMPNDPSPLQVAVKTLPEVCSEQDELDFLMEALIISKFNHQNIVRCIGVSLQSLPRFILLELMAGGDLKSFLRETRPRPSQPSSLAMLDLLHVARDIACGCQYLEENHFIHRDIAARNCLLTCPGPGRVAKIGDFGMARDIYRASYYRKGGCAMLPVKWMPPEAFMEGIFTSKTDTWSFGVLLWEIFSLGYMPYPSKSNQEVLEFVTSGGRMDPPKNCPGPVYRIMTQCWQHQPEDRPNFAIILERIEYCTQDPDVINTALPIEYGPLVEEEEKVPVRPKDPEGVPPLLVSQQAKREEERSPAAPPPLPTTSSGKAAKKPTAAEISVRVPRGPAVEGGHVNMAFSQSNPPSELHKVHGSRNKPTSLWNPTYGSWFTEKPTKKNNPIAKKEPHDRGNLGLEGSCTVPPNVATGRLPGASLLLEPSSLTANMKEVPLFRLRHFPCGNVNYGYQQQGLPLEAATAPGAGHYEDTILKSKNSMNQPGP
Chain of CSNK1G2 (human) (P78368 whole entry, looked up): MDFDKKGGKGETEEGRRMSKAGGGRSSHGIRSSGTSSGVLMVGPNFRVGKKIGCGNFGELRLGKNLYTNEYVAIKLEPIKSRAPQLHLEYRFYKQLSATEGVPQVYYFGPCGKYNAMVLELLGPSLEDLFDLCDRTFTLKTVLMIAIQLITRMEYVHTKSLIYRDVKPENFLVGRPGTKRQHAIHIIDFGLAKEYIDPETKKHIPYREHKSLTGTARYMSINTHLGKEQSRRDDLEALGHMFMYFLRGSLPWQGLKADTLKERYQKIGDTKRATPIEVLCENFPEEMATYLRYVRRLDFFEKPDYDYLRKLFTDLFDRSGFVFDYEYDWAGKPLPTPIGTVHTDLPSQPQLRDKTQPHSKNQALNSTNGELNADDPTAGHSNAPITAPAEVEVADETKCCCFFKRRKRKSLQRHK

Regarding `N=C1NC(=O)/C(=C/c2ccc(-c3ccccc3O)o2)S1`, the kinase still bound, per cent of control on PIK3C2B (human) was found to be 31%.

In the case of `COc1cc(N2CCN(C)CC2)ccc1Nc1ncc2c(n1)Nc1ccccc1NC2=O`, the kinase still bound, per cent of control amounted to 29% in [1]; 14% in test [2]; 100% at AKT3 (human); 53% on ALK (human); 80% at BMPR1A (human); 100% on BMPR2 (human). Moreover, the kinase still bound, per cent of control worked out at 99% at BMX (human); 82% at CDK11A (human); 100% on CDK14 (human); 92% at CSNK1G2 (human); 33% in test [3]; 28% in test [4]. The kinase still bound, per cent of control on EPHA1 (human) is 74%; on ERBB4 (human), 62%; at FER (human), 100%; at INSRR (human), 41%; at MAP2K2 (human), 95%; on MAP3K12 (human), 100%. Moreover, the kinase still bound, per cent of control was 86% on MAP3K3 (human); 100% on MAPK13 (human); 100% on MAPK7 (human); 80% at MERTK (human); 100% at MYO3B (human); 82% on PAK1 (human). Besides, the kinase still bound, per cent of control on PAK2 (human) was 80%; at PAK6 (human), 100%; on PAK7 (human), 78%; on PIK3C2B (human), 100%; at PIK3CB (human), 88%; at PIK3CD (human) it was 100%. Besides, the kinase still bound, per cent of control at PKMYT1 (human) is 100%; on PRKACA (human) it was 100%; at RAF1 (human), 89%; in test [5] it was 100%; on ROS1 (human), 82%; at SGK110 (human) it was 97%. The kinase still bound, per cent of control was 48% at SRC (human); 0% at SRMS (human); 64% at STK36 (human); 100% on STK38L (human); 95% at ULK3 (human); 100% at ZAP70 (human).

`N=C1NC(=O)/C(=C/c2ccc(-c3ccc(C(N)=O)cc3O)o2)S1`: the kinase still bound, per cent of control at CDK14 (human) was determined as 18%; at PIK3C2B (human) it was 28%; at PIK3CD (human), 26%; at SRMS (human) it was 33%; at ZAP70 (human), 25%.

For the compound `N=C1NC(=O)/C(=C/c2ccc(-c3csc4ccccc34)o2)S1`, the results for the kinase still bound, per cent of control on ALK (human) and at RAF1 (human) were 32% and 33%, respectively.

On to `CN1C(=O)[C@H]2CCC[C@H]2N(C2CCCC2)c2nc(Nc3ccc(C(N)=O)cc3)ncc21`, for which the kinase still bound, per cent of control amounted to 23% on BMPR2 (human), 0.1% at MAPK7 (human), 6.8% at MERTK (human) and 30% on SGK110 (human).

For the compound `CS(=O)(=O)Nc1ccc(-c2cncc(/C=C3\SC(=N)NC3=O)c2)cc1`, the kinase still bound, per cent of control at BMPR1A (human) was found to be 0.95%; on CSNK1G2 (human), 0.75%; in test [3], 17%; at PAK1 (human) it was 9.4%.

As for `N=C1NC(=O)/C(=C/c2ccc(-c3ccc(F)cc3O)o2)S1`, the kinase still bound, per cent of control at CDK14 (human) turned out to be 19%; in test [3], 29%.

For `Nc1cccc(-c2cc(/C=C3\SC(=O)NC3=O)c[nH]c2=O)c1`, the kinase still bound, per cent of control on BMPR2 (human) was 29%; on CSNK1G2 (human) it was 19%; in test [3] it was 9.4%; in [4], 29%.

As for `O=C1NC(=S)S/C1=C\c1ccc(-c2cncc3ccccc23)o1`, the kinase still bound, per cent of control came to 30% at ALK (human); 2% on CDK11A (human); 26% on MYO3B (human); 31% on PAK2 (human); 29% at PAK6 (human); 11% at PAK7 (human). In addition, the kinase still bound, per cent of control was found to be 25% at RAF1 (human), 34% on ROS1 (human) and 29% on STK38L (human).

Turning to `N=C1NC(=O)/C(=C/c2ccc(-c3cncc4ccccc34)o2)S1`, the kinase still bound, per cent of control on BMPR1A (human) came out at 33%; at CDK11A (human), 0.45%; on PAK2 (human) it was 24%; on PAK6 (human) it was 14%; at PAK7 (human) it was 13%; in test [5] it was 16%.

Consider `CS(=O)(=O)Nc1ccc(-c2ncc(/C=C3\SC(=N)NC3=O)s2)cc1`, for which the kinase still bound, per cent of control stood at 28% in [2], 14% on CSNK1G2 (human) and 20% on STK36 (human).

For `CS(=O)(=O)Nc1ccc(-c2cc(/C=C3\SC(=N)NC3=O)c[nH]c2=O)cc1`, the kinase still bound, per cent of control on BMPR1A (human) was found to be 8%.
